Measurements from US20200231638A1, “STABILIZED ANTI-MICROBIAL PEPTIDES” (priority 2015, published 2020).
Bridge positions count the residues as written; N and C are the ends. Square brackets hold non-standard residues; d marks the D form. Ends that are not written are not given here. Peptide text beside a SMILES is read from it. R8 = C=CCCCCCC[C@@](C)(N)C(=O)O; S5 = C=CCCC[C@](C)(N)C(=O)O; Nle = CCCC[C@H](N)C(=O)O; Aib = CC(C)(N)C(=O)O

Columns and labels:
P. aeruginosa = assay type: cell-based, Pseudomonas aeruginosa
In short: (§1)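 Read-out is visible growth: the MIC is the lowest peptide concentration showing none after 20-24 hours at 37° C. Bacteria in refined (anion-exchanged) Mueller-Hinton broth were seeded at a final 5×10^5 CFU/ml onto water-based peptide serial dilutions.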

E. coli = assay type: cell-based, Escherichia coli
In short: as §1

B. cereus = assay type: cell-based, Bacillus cereus
In short: as §1

S. aureus = assay type: cell-based, Staphylococcus aureus
In short: as §1

human red blood cells = assay type: cell-based; settings: red cells of human, 1 h, 25
In short: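 Hemolysis expressed as absorbance of released hemoglobin (570 nm) normalized between untreated and 1% Triton-X100 controls, with MHC taken as peptide concentration giving under 1% release. Peptide dilutions were exposed for 1 h at 37° C to a 1% (v/v) suspension of washed human red cells in PBS.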

MIC P. aeruginosa (P. aeruginosa) | MIC E. coli (E. coli) | MIC B. cereus (B. cereus) | MIC S. aureus (S. aureus) | Compound | % Hemolysis at 25 μg/ml (human red blood cells)
3.1 µg/mL | 3.1 µg/mL | 6.2 µg/mL | 6.2 µg/mL | GWGSFFKKAAHVGKHVGKAALTHYL-NH2 [Pleurocidin-NH2, reference compound] | 0.5%
12.5 µg/mL | 3.1 µg/mL | 50 µg/mL | >50 µg/mL | CCCC[C@H](NC(=O)[C@]1(C)CCCC=CCCC[C@](C)(NC(=O)[C@H](C)NC(=O)[C@H](CCCCN)NC(=O)CNC(=O)[C@H](Cc2ccccc2)NC(=O)[C@H](CCCCN)NC(=O)[C@H](CCCCN)NC(=O)[C@H](C)NC(=O)[C@H](CO)NC(=O)[C@H](Cc2c[nH]cn2)NC(=O)[C@H](CC(C)C)NC(=O)[C@H](Cc2ccccc2)NC(=O)[C@H](CCCCN)NC(=O)CNC(=O)[C@@H](NC(=O)CN)[C@@H](C)CC)C(=O)N[C@@H](CCCCN)C(=O)NCC(=O)N[C@@H](CCC(=O)O)C(=O)N1)C(=O)N[C@@H](CC(N)=O)C(=O)N[C@@H](CO)C(N)=O [Mag(i + 4)15(V17K), GIGKFLHSAKKFGKAXKGEXBNS] (H-GIGKFLHSAKKFGKA[S5]KGE[S5][Nle]NS-NH2; staple 16-20) | 2.2%
3.1 µg/mL | 1.6 µg/mL | 3.1 µg/mL | 12.5 µg/mL | CCCC[C@H](NC(=O)[C@]1(C)CCCC=CCCCCCC[C@@](C)(NC(=O)[C@H](Cc2ccccc2)NC(=O)[C@H](CCCCN)NC(=O)[C@H](CCCCN)NC(=O)[C@H](C)NC(=O)[C@H](CO)NC(=O)[C@H](Cc2c[nH]cn2)NC(=O)[C@H](CC(C)C)NC(=O)[C@H](Cc2ccccc2)NC(=O)[C@H](CCCCN)NC(=O)CNC(=O)[C@@H](NC(=O)CN)[C@@H](C)CC)C(=O)N[C@@H](CCCCN)C(=O)N[C@@H](C)C(=O)N[C@@H](Cc2ccccc2)C(=O)N[C@@H](C(C)C)C(=O)NCC(=O)N[C@@H](CCC(=O)O)C(=O)N1)C(=O)N[C@@H](CC(N)=O)C(=O)N[C@@H](CO)C(N)=O [Mag(i + 7)12] (H-GIGKFLHSAKKF[R8]KAFVGE[S5][Nle]NS-NH2; staple 13-20 (inferred); N-terminus and C-terminus assumed) | 80.3%
12.5 µg/mL | 3.1 µg/mL | 6.2 µg/mL | 12.5 µg/mL | CCCC[C@H](NC(=O)[C@@H](NC(=O)[C@H](CCC(=O)O)NC(=O)CNC(=O)[C@@H](NC(=O)[C@H](Cc1ccccc1)NC(=O)[C@H](C)NC(=O)[C@H](CCCCN)NC(=O)CNC(=O)[C@H](Cc1ccccc1)NC(=O)[C@H](CCCCN)NC(=O)[C@]1(C)CCCC=CCCCCCC[C@@](C)(NC(=O)[C@@H](NC(=O)CN)[C@@H](C)CC)C(=O)N[C@@H](CCCCN)C(=O)N[C@@H](Cc2ccccc2)C(=O)N[C@@H](CC(C)C)C(=O)N[C@@H](Cc2c[nH]cn2)C(=O)N[C@@H](CO)C(=O)N[C@@H](C)C(=O)N1)C(C)C)[C@@H](C)CC)C(=O)N[C@@H](CC(N)=O)C(=O)N[C@@H](CO)C(N)=O [Mag(i + 7)2] (H-GI[R8]KFLHSA[S5]KFGKAFVGEI[Nle]NS-NH2; staple 3-10 (inferred); N-terminus and C-terminus assumed) | 69.3%

The remaining lines, values behind:

Compound | MIC P. aeruginosa (P. aeruginosa) | MIC E. coli (E. coli) | MIC B. cereus (B. cereus) | MIC S. aureus (S. aureus) | % Hemolysis at 25 μg/ml (human red blood cells)
CCCC[C@H](NC(=O)[C@]1(C)CCCC=CCCC[C@](C)(NC(=O)[C@H](C)NC(=O)[C@H](CCCCN)NC(=O)CNC(=O)[C@H](Cc2ccccc2)NC(=O)[C@H](CCCCN)NC(=O)[C@H](CCCCN)NC(=O)[C@H](CCC(=O)O)NC(=O)[C@H](CO)NC(=O)[C@H](Cc2c[nH]cn2)NC(=O)[C@H](CC(C)C)NC(=O)[C@H](Cc2ccccc2)NC(=O)[C@H](CCCCN)NC(=O)CNC(=O)[C@@H](NC(=O)CN)[C@@H](C)CC)C(=O)N[C@@H](C(C)C)C(=O)NCC(=O)N[C@@H](CCC(=O)O)C(=O)N1)C(=O)N[C@@H](CC(N)=O)C(=O)N[C@@H](CO)C(N)=O [Mag(i + 4)15(A9E), GIGKFLHSEKKFGKAXVGEXBNS] (H-GIGKFLHSEKKFGKA[S5]VGE[S5][Nle]NS-NH2; staple 16-20) | >50 µg/mL | 50 µg/mL | >50 µg/mL | >50 µg/mL | 0.6%
CCCC[C@H](NC(=O)[C@@H](NC(=O)[C@H](CCC(=O)O)NC(=O)CNC(=O)[C@@H](NC(=O)[C@H](Cc1ccccc1)NC(=O)[C@H](C)NC(=O)[C@H](CCCCN)NC(=O)CNC(=O)[C@H](Cc1ccccc1)NC(=O)[C@H](CCCCN)NC(=O)[C@H](CCCCN)NC(=O)[C@H](C)NC(=O)[C@]1(C)CCCC=CCCC[C@](C)(NC(=O)CNC(=O)[C@@H](NC(=O)CN)[C@@H](C)CC)C(=O)N[C@@H](Cc2ccccc2)C(=O)N[C@@H](CC(C)C)C(=O)N[C@@H](Cc2c[nH]cn2)C(=O)N1)C(C)C)[C@@H](C)CC)C(=O)N[C@@H](CC(N)=O)C(=O)N[C@@H](CO)C(N)=O [Mag(i + 4)3] (H-GIG[S5]FLH[S5]AKKFGKAFVGEI[Nle]NS-NH2; staple 4-8) | 25 µg/mL | 6.2 µg/mL | 12.5 µg/mL | 6.2 µg/mL | 41.6%
CCCC[C@H](NC(=O)[C@]1(C)CCCC=CCCC[C@](C)(NC(=O)[C@H](C)NC(=O)[C@H](CCCCN)NC(=O)CNC(=O)[C@H](Cc2ccccc2)NC(=O)[C@H](CCCCN)NC(=O)[C@H](CCCCN)NC(=O)[C@H](C)NC(=O)[C@H](CO)NC(=O)[C@H](Cc2c[nH]cn2)NC(=O)[C@H](CC(C)C)NC(=O)[C@H](Cc2ccccc2)NC(=O)[C@H](CCCCN)NC(=O)CNC(=O)[C@@H](NC(=O)CN)[C@@H](C)CC)C(=O)N[C@@H](C(C)C)C(=O)N[C@@H](Cc2c[nH]cn2)C(=O)N[C@@H](CCC(=O)O)C(=O)N1)C(=O)N[C@@H](CC(N)=O)C(=O)N[C@@H](CO)C(N)=O [Mag(i + 4)15(G18H), GIGKFLHSAKKFGKAXVHEXBNS] (H-GIGKFLHSAKKFGKA[S5]VHE[S5][Nle]NS-NH2; staple 16-20) | 6.2 µg/mL | 1.6 µg/mL | 3.1 µg/mL | 6.2 µg/mL | 6.8%
CCCC[C@H](NC(=O)[C@]1(C)CCCC=CCCC[C@](C)(NC(=O)[C@H](C)NC(=O)[C@H](CCCCN)NC(=O)C(C)(C)NC(=O)[C@H](Cc2ccccc2)NC(=O)[C@H](CCCCN)NC(=O)[C@H](CCCCN)NC(=O)[C@H](C)NC(=O)[C@H](CO)NC(=O)[C@H](Cc2c[nH]cn2)NC(=O)[C@H](CC(C)C)NC(=O)[C@H](Cc2ccccc2)NC(=O)[C@H](CCCCN)NC(=O)CNC(=O)[C@@H](NC(=O)CN)[C@@H](C)CC)C(=O)N[C@@H](C(C)C)C(=O)NCC(=O)N[C@@H](CCC(=O)O)C(=O)N1)C(=O)N[C@@H](CC(N)=O)C(=O)N[C@@H](CO)C(N)=O [Mag(i + 4)15(G13!), GIGKFLHSAKKF!KAXVGEXBNS] (H-GIGKFLHSAKKF[Aib]KA[S5]VGE[S5][Nle]NS-NH2; staple 16-20) | 3.1 µg/mL | 1.6 µg/mL | 3.1 µg/mL | 3.1 µg/mL | 71.5%
CCCC[C@H](NC(=O)[C@@H](NC(=O)[C@H](CCC(=O)O)NC(=O)CNC(=O)[C@@H](NC(=O)[C@H](Cc1ccccc1)NC(=O)[C@H](C)NC(=O)[C@H](CCCCN)NC(=O)CNC(=O)[C@H](Cc1ccccc1)NC(=O)[C@H](CCCCN)NC(=O)[C@H](CCCCN)NC(=O)[C@H](C)NC(=O)[C@H](CO)NC(=O)[C@H](Cc1c[nH]cn1)NC(=O)[C@H](CC(C)C)NC(=O)[C@]1(C)CCCC=CCCC[C@](C)(N)C(=O)N[C@@H]([C@@H](C)CC)C(=O)NCC(=O)N[C@@H](CCCCN)C(=O)N1)C(C)C)[C@@H](C)CC)C(=O)N[C@@H](CC(N)=O)C(=O)N[C@@H](CO)C(N)=O [Mag(i + 4)0, XIGKXLHSAKKFGKAFVGEIBNS] (H-[S5]IGK[S5]LHSAKKFGKAFVGEI[Nle]NS-NH2; staple 1-5) | 50 µg/mL | 3.1 µg/mL | 12.5 µg/mL | >50 µg/mL | 4.8%
CCCC[C@H](NC(=O)[C@]1(C)CCCC=CCCC[C@](C)(NC(=O)[C@H](C)NC(=O)[C@H](CCCCN)NC(=O)[C@H](CCCCN)NC(=O)[C@H](Cc2ccccc2)NC(=O)[C@H](CCCCN)NC(=O)[C@H](CCCCN)NC(=O)[C@H](C)NC(=O)[C@H](CO)NC(=O)[C@H](Cc2c[nH]cn2)NC(=O)[C@H](CC(C)C)NC(=O)[C@H](Cc2ccccc2)NC(=O)[C@H](CCCCN)NC(=O)CNC(=O)[C@@H](NC(=O)CN)[C@@H](C)CC)C(=O)N[C@@H](C(C)C)C(=O)NCC(=O)N[C@@H](CCC(=O)O)C(=O)N1)C(=O)N[C@@H](CC(N)=O)C(=O)N[C@@H](CO)C(N)=O [Mag(i + 4)15(G13K), GIGKFLHSAKKFKKAXVGEXBNS] (H-GIGKFLHSAKKFKKA[S5]VGE[S5][Nle]NS-NH2; staple 16-20) | 12.5 µg/mL | 3.1 µg/mL | >50 µg/mL | >50 µg/mL | 1.8%
CCCC[C@H](NC(=O)[C@]1(C)CCCC=CCCC[C@](C)(NC(=O)[C@H](C)NC(=O)[C@H](CCCCN)NC(=O)CNC(=O)[C@H](Cc2ccccc2)NC(=O)[C@H](CCCCN)NC(=O)[C@H](CCCCN)NC(=O)[C@H](C)NC(=O)[C@H](CO)NC(=O)[C@H](Cc2c[nH]cn2)NC(=O)[C@H](CC(C)C)NC(=O)[C@H](Cc2ccccc2)NC(=O)[C@H](CCCCN)NC(=O)CNC(=O)[C@@H](NC(=O)CN)[C@@H](C)CC)C(=O)N[C@@H](C(C)C)C(=O)NCC(=O)N[C@@H](CCC(=O)O)C(=O)N1)C(=O)N[C@@H](CCC(=O)O)C(=O)N[C@@H](CO)C(N)=O [Mag(i + 4)15(N22E), GIGKFLHSAKKFGKAXVGEXBES] (H-GIGKFLHSAKKFGKA[S5]VGE[S5][Nle]ES-NH2; staple 16-20) | 12.5 µg/mL | 3.1 µg/mL | 12.5 µg/mL | 25 µg/mL | 3.4%
